Assay results as given in PMC8424217 (The Journal of Biological Chemistry, 2021).
Peptide text beside a SMILES is read from it. * marks the point of attachment. Palmitoyl = CCCCCCCCCCCCCCCC(=O)*

Columns and labels:
Format in all cases: cell-based
hUT [1] = molecular target: T1, hUT (Homo sapiens, UniProt Q9UKP6); test: EGFR transactivation (EGFR-GFP internalization, confocal microscopy), HEK 293-hUT cells; design: expressed in transfected cells; details: 30 min; for EGFR internalization: 10^−6 M; for EGFR transactivation after YM254890 (Gq inhibitor): YM254890 100 nM 1 h pretreatment, peptide 10^−6 M
T1 sequence (Q9UKP6 1-389): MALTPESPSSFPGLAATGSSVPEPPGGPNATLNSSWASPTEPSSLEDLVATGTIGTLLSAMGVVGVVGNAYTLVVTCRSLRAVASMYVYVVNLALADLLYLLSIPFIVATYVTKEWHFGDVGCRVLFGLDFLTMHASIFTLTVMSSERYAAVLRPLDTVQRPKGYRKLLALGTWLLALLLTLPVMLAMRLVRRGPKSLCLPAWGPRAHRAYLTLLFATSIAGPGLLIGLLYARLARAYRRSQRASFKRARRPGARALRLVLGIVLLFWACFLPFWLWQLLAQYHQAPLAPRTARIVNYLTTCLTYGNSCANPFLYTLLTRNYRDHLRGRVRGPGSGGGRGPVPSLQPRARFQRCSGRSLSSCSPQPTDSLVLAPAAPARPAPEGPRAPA
Experimental: EGFR internalization, following hUT stimulation with various ligands for 30 min, was visualized using confocal microscopy. The images shown are from representative experiments repeated at least three times.
HEK 293 and HEK 293-hUT cells, transiently transfected with cDNA encoding fluorescently labeled EGFR (EGFR-GFP) (2 μg), were plated onto 35-mm glass-bottomed culture dishes (MatTek Corp). Following stimulation, cells were washed once with PBS and fixed in 4% paraformaldehyde for 15 min. To study the involvement of Gq in EGFR internalization, cells were treated with YM254890 (100 nM) for 1h prior peptide treatments. […] EGFR-GFP internalization was visualized using a combination of excitation (488 nm) and emission filters (499 and 520 nm).

hUT [2] = molecular target: T1, hUT; test: β-arrestin 1 conformational change, BRET biosensor, HEK 293-hUT cells; design: expressed in transfected cells; details: for Emax: percentage of the activation induced by hUII (10^−6 M), n = 3–5
Experimental: (§1) Figure 6 Signaling signature of hUT-pepducins following hUT receptor activation. […] Each curve represents mean ± SEM of at least three independent concentration-response experiments performed in triplicate.
(§2) HEK 293-hUT cells were grown in DMEM culture media supplemented with 10% foetal bovine serum, HEPES, sodium pyruvate, and G418 (200 μg mL^−1). Passages were performed when cells reached 80% of confluency. Cells were initially plated in 96-well plates at a density of 10,000 cells/well. The following day, the medium is replaced with DMEM culture media supplemented with 2.5% foetal bovine serum (FBS), and 12 h later, cells were transiently transfected with 25 ng/well of a Gq-polycistronic, 25 ng/well of a G12-polycistronic BRET sensor, 25 ng/well of a G13-polycistronic BRET sensor, 2.5 ng/well pIRESB RLucII-ERK-NLS-GFP BRET sensor, 2.5 ng β-arrestin 1-polycistronic BRET sensor, or 2.5 ng β-arrestin 2-polycistronic BRET sensor using Lipofectamine2000 at a ratio of 3:1 (Lipofectamine/plasmid DNA) in serum-free Opti-MEM ([44], [81]). Sixteen hours posttransfection, medium was replaced with DMEM supplemented with 10% FBS, HEPES, sodium pyruvate and G418 (200 μg mL^−1) and cell growth was resumed for another 16 h. Cells were washed with 150 μl PBS solution supplemented with 0.1% of glucose and then incubated with 80 μl of this solution for 2 h. Then, to evaluate Gq and G12 activation, 10 μl of a 1/20 dilution (diluted before use) of coelenterazine 400A (stock at 1 mM in ethanol) in Kreb's buffer and 10 μl of the 10× appropriate concentration of peptide were added, and the luminescence was evaluated with an Infinite M1000 PRO. […] Readings were performed after 5 min using an Infinite M1000 PRO. Filters were set at 410 nm and 515 nm for detecting the Renilla luciferase II (RlucII, donor) and green fluorescent protein 10 (GFP10, acceptor) light emission, respectively. BRET ratio was determined by calculating the ratio of the light emitted by GFP10 over the light emitted by the RlucII.

hUT [3] = molecular target: T1, hUT; test: Gq activation, BRET biosensor, HEK 293-hUT cells; design: expressed in transfected cells; details: mean ± SEM; for EC50: n = 3–5, read-out: Gq activation pEC50 (converted)
Experimental: as §1, §2

hUT [4] = molecular target: T1, hUT; test: G13 activation, BRET biosensor, HEK 293-hUT cells; design: expressed in transfected cells; details: for EC50: HEK 293-hUT, BRET, mean ± SEM, n = 3–5, read-out: G13 activation pEC50 (converted)
Experimental: as §1, §2

hUT [5] = molecular target: T1, hUT; test: ERK1/2 phosphorylation, western blot, HEK 293-hUT cells; design: expressed in transfected cells; host or cells: CHO-K1 cells stably expressing hUT (gift from H. Vaudry and C. Dubessy, University of Rouen); details: for effect of YM254890 (Gq inhibitor) on ERK1/2 phosphorylation induced by the peptide: YM254890 100 nM 1 h pretreatment, hUT-Pep2 at 5 min, [Trp^1, Leu^2]hUT-Pep3 at 5 and 10 min, p < 0.05; for effect of YM254890 (Gq inhibitor) on ERK1/2 phosphorylation induced by the peptide / time of maximal ERK1/2 phosphorylation (for [Trp^1, Leu^2]hUT-Pep3: time to reach efficacy similar to hUII): pepducins 10^−5 M; for time of maximal ERK1/2 phosphorylation (for [Trp^1, Leu^2]hUT-Pep3: time to reach efficacy similar to hUII): hUII 10^−7 M
Experimental: Curves represent mean ± SEM of three independent kinetic experiments performed in triplicate.
CHO cells stably expressing hUT (CHO-hUT; gift from Drs H. Vaudry et C. Dubessy, University of Rouen, France) were grown in 12-well plates to 70–80% confluence and starved for 6 h in a serum-free medium. […] Briefly, HEK 293-hUT cells, grown in 12-well plates to 70–80% confluence, were starved for 6 h in a serum-free medium. […] Cells were then rinsed twice with ice-cold PBS and homogenized in 0.5 ml of lysis buffer (20 mM Tris, 150 mM NaCl, 1 mM EDTA, 1 mM EGTA, 1% Triton X-100, 2.5 mM sodium pyrophosphate, 1 mM β-glycerolphosphate, 1 mM Na3VO4, 1 μg mL^−1 leupeptin, 1 mM PMSF, 1 mM DTT) at 4 °C. Insoluble material was removed by centrifugation at 12,000 rpm for 30 min. The extract was treated with Laemmli sample buffer and heated for 5 min at 95 °C. Aliquots were assayed for protein concentration (BioRad) and an equal amount of total protein was subjected to 12% SDS–PAGE, followed by transfer to a nitrocellulose membrane. The membrane was blocked and then probed with primary antibody (phospho-p44/42 MAPK) at the optimal dilution (1/2000) with gentle agitation overnight at 4 °C. After washing with TTBS, membranes were then incubated with secondary antibody, conjugated with horseradish peroxidase (anti-rabbit HRP) diluted in TBST containing 5% skim milk (w/v) for 1 h at room temperature. Immunoreactive species were visualized by enhanced chemiluminescence using X-ray film and Thermo Scientific SuperSignal chemiluminescent substrates according to the manufacturer's instructions. Films were digitized and the intensity of the immunoreactive bands determined using Quantity One software from Bio-Rad.

CHO-K1 cells = test: ERK1/2 phosphorylation, western blot, CHO-K1 cells not expressing hUT; details: CHO-K1, 5 min; hUII 10^−7 M, pepducins 10^−5 M; n = 3
[6] = percentage of the activation induced by hUII (10^−6 M), n = 3–5

Row | SMILES | EGFR internalization (hUT [1]) | EGFR transactivation after YM254890 (Gq inhibitor) (hUT [1]) | EC50 (hUT [2]; 15 min at RT, mean ± SEM, n = 3–5, read-out: β-arrestin 1 pEC50 (converted)) | Emax (hUT [2]; 15 min at RT, mean ± SEM) | EC50 (hUT [3]) | Emax (hUT [3]; [6]) | Emax (hUT [4]) | EC50 (hUT [4]) | effect of YM254890 (Gq inhibitor) on ERK1/2 phosphorylation induced by the peptide (hUT [5]) | duration of ERK1/2 activation in presence of YM254890 (hUT [5]; YM254890 100 nM, 0-20 min) | time of maximal ERK1/2 phosphorylation (for [Trp^1, Leu^2]hUT-Pep3: time to reach efficacy similar to hUII) (hUT [5]) | ERK1/2 phosphorylation in absence of receptor (CHO-K1 cells) | Emax at 1 µM (hUT [3]; [6]) | Emax at 1 µM (hUT [4]) | β-arrestin 1 activation (in words) (hUT [2])
1 | CCCCCCCCCCCCCCCC(=O)N[C@@H](Cc1c[nH]c2ccccc12)C(=O)N[C@@H](CC(C)C)C(=O)N[C@@H](CO)C(=O)N[C@@H](CCC(N)=O)C(=O)N[C@@H](CCCNC(=N)N)C(=O)N[C@@H](C)C(=O)N[C@@H](CO)C(=O)N[C@@H](Cc1ccccc1)C(=O)N[C@@H](CCCCN)C(=O)N[C@@H](CCCNC(=N)N)C(=O)N[C@@H](C)C(=O)N[C@@H](CCCNC(=N)N)C(=O)N[C@@H](CCCNC(=N)N)C(N)=O [[Trp^1, Leu^2]hUT-Pep3] (Palmitoyl-WLSQRASFKRARR-NH2) | significant internalization of EGFR-GFP | almost completely abolished | 8.32 nM | ~18% | 4.57 nM | 29 ± 4% | 185 ± 11% | 309 nM | modest, but significant, inhibitory effect | this activation is maintained and did not decrease over the studied period of time | 10 min | neither hUII nor hUT-derived pepducins were able to induce ERK1/2 phosphorylation |  |  | 
2 | CC(C)[C@H](NC(=O)[C@@H]1CSSC[C@H](NC(=O)[C@H](CC(=O)O)NC(=O)[C@@H]2CCCN2C(=O)[C@@H](NC(=O)[C@@H](N)CCC(=O)O)[C@@H](C)O)C(=O)N[C@@H](Cc2ccccc2)C(=O)N[C@@H](Cc2c[nH]c3ccccc23)C(=O)N[C@@H](CCCCN)C(=O)N[C@@H](Cc2ccc(O)cc2)C(=O)N1)C(=O)O [hUII, urotensin II, reference compound] | resulted in EGFR internalization |  |  | 104 ± 4% |  |  |  |  |  |  | 5 min | neither hUII nor hUT-derived pepducins were able to induce ERK1/2 phosphorylation | 109 ± 5% | 106 ± 5% | 
3 | CCCCCCCCCCCCCCCC(=O)N[C@@H](CCCNC(=N)N)C(=O)N1CCC[C@H]1C(=O)N[C@@H](CC(C)C)C(=O)N[C@@H](CC(=O)O)C(=O)N[C@H](C(=O)N[C@H](C(=O)N[C@@H](CCC(N)=O)C(=O)N[C@@H](CCCNC(=N)N)C(=O)N1CCC[C@H]1C(=O)N[C@@H](CCCCN)C(=O)NCC(=O)N[C@@H](Cc1ccc(O)cc1)C(N)=O)C(C)C)[C@@H](C)O [hUT-Pep2] (Palmitoyl-RPLDTVQRPKGY-NH2) | significant internalization of EGFR-GFP | almost completely abolished |  |  | 49 nM | ~9% | 154 ± 10% | 468 nM | modest, but significant, inhibitory effect |  | 5 min | neither hUII nor hUT-derived pepducins were able to induce ERK1/2 phosphorylation |  |  | inactive
